Results reported in PubChem BioAssay (NCI).
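A five-concentration, 48-hour dose response in 96-well plates underlies each endpoint, interpolated linearly between surrounding concentrations. GI50 marks 50% less growth. TGI: total growth inhibition.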

How the values were obtained:
Experiment in all cases: NCI tumour cell line growth inhibition, 48 h
[1] = tested on: UO-31 renal
[2] = tested on: BT-549 breast
[3] = tested on: HL-60(TB) leukemia
[4] = tested on: LOX IMVI melanoma
[5] = tested on: K-562 leukemia
[6] = tested on: SW-620 colon
[7] = tested on: MALME-3M melanoma
[8] = tested on: HCT-116 colon
[9] = tested on: A549 NSCLC
[10] = tested on: SF-268 CNS
[11] = tested on: CCRF-CEM leukemia
[12] = tested on: KM12 colon
[13] = tested on: CAKI-1 renal
[14] = tested on: OVCAR-5 ovarian
[15] = tested on: RXF 393 renal
[16] = tested on: OVCAR-3 ovarian
[17] = tested on: TK-10 renal
[18] = tested on: HOP-62 NSCLC
[19] = tested on: NCI-H460 lung
[20] = tested on: SF-295 CNS
[21] = tested on: NCI-H23 lung
[22] = tested on: OVCAR-4 ovarian
[23] = tested on: EKVX NSCLC
[24] = tested on: COLO 205 colon
[25] = tested on: SK-MEL-28 melanoma
[26] = tested on: HOP-92 NSCLC
[27] = tested on: NCI/ADR-RES ovarian
[28] = tested on: IGROV1 ovarian
[29] = tested on: RPMI-8226 leukemia
[30] = tested on: 786-0 renal
[31] = tested on: OVCAR-8 ovarian
[32] = tested on: ACHN renal
[33] = tested on: PC-3 prostate
[34] = tested on: SK-MEL-5 melanoma
[35] = tested on: HCC-2998 colon
[36] = tested on: UACC-257 melanoma
[37] = tested on: SF-539 CNS
[38] = tested on: DU-145 prostate
[39] = tested on: A498 renal
[40] = tested on: SN12C renal
[41] = tested on: MCF7 breast
[42] = tested on: HS 578T breast
[43] = tested on: HT29 colon
[44] = tested on: SK-OV-3 ovarian
[45] = tested on: NCI-H522 lung
[46] = tested on: T-47D breast
[47] = tested on: MDA-MB-435
[48] = tested on: SNB-75 CNS
[49] = tested on: MDA-MB-231 breast
[50] = tested on: SNB-19 CNS
[51] = tested on: SK-MEL-2 melanoma
[52] = tested on: UACC-62 melanoma
[53] = tested on: U251 CNS
[54] = tested on: MOLT-4 leukemia
[55] = tested on: NCI-H226 lung
[56] = tested on: HCT-15 colon
[57] = tested on: M14 melanoma
[58] = tested on: SR leukemia

O=C(NNc1nc2cc(F)ccc2n2c(CN3CC4(COC4)C3)ccc12)c1cnccn1
GI50 [1]: 114 nM
TGI [1]: 5710 nM
GI50 [2]: 907 nM
TGI [2]: 9220 nM
GI50 [3]: 469 nM
TGI [3]: 12900 nM
GI50 [4]: 557 nM
TGI [4]: 9720 nM
GI50 [5]: 502 nM
TGI [5]: > 100000 nM
GI50 [6]: 620 nM
TGI [6]: > 56300 nM
GI50 [7]: 1600 nM
TGI [7]: 11900 nM
GI50 [8]: 373 nM
TGI [8]: 13300 nM
GI50 [9]: 611 nM
TGI [9]: 32700 nM
GI50 [10]: 616 nM
TGI [10]: > 100000 nM
GI50 [11]: 281 nM
TGI [11]: > 70400 nM
GI50 [12]: 579 nM
TGI [12]: > 64200 nM
GI50 [13]: 330 nM
TGI [13]: 13200 nM
GI50 [14]: 1160 nM
TGI [14]: 34300 nM
GI50 [15]: 2290 nM
TGI [15]: 13700 nM
GI50 [16]: 650 nM
TGI [16]: 22700 nM
GI50 [17]: 263 nM
TGI [17]: 23200 nM
GI50 [18]: 442 nM
TGI [18]: 22100 nM
GI50 [19]: 259 nM
TGI [19]: 11600 nM
GI50 [20]: 319 nM
TGI [20]: 12200 nM
GI50 [21]: 1780 nM
TGI [21]: 41800 nM
GI50 [22]: 490 nM
TGI [22]: > 39100 nM
GI50 [23]: 438 nM
TGI [23]: 30000 nM
GI50 [24]: 401 nM
TGI [24]: 16300 nM
GI50 [25]: 861 nM
TGI [25]: 25100 nM
GI50 [26]: 983 nM
TGI [26]: 23300 nM
GI50 [27]: 386 nM
TGI [27]: 9970 nM
GI50 [28]: 717 nM
TGI [28]: 18900 nM
GI50 [29]: 689 nM
TGI [29]: 28100 nM
GI50 [30]: 458 nM
TGI [30]: 11200 nM
GI50 [31]: 404 nM
TGI [31]: 16300 nM
GI50 [32]: 233 nM
TGI [32]: 11700 nM
GI50 [33]: 719 nM
TGI [33]: 31400 nM
GI50 [34]: 673 nM
TGI [34]: 5330 nM
GI50 [35]: 709 nM
TGI [35]: > 45900 nM
GI50 [36]: 1720 nM
TGI [36]: 8070 nM
GI50 [37]: 675 nM
TGI [37]: 8970 nM
GI50 [38]: 1180 nM
TGI [38]: > 82400 nM
GI50 [39]: 16700 nM
TGI [39]: 34000 nM
GI50 [40]: 952 nM
TGI [40]: 33500 nM
GI50 [41]: 596 nM
TGI [41]: 9810 nM
GI50 [42]: 3040 nM
TGI [42]: > 95200 nM
GI50 [43]: 499 nM
TGI [43]: 16800 nM
GI50 [44]: 548 nM
TGI [44]: 9880 nM
GI50 [45]: 497 nM
TGI [45]: 5500 nM
GI50 [46]: 558 nM
TGI [46]: 22300 nM
GI50 [47]: 1300 nM
TGI [47]: > 47500 nM
GI50 [48]: 756 nM
TGI [48]: 11000 nM
GI50 [49]: 696 nM
TGI [49]: 19500 nM
GI50 [50]: 854 nM
TGI [50]: > 100000 nM
GI50 [51]: 2190 nM
TGI [51]: 14700 nM
GI50 [52]: 406 nM
TGI [52]: 1960 nM
GI50 [53]: 395 nM
TGI [53]: > 53100 nM
GI50 [54]: 443 nM
TGI [54]: > 75600 nM
GI50 [55]: 1050 nM
TGI [55]: 10800 nM
GI50 [56]: 188 nM
TGI [56]: 26300 nM
GI50 [57]: 451 nM
TGI [57]: 3530 nM
GI50 [58]: 409 nM
TGI [58]: > 100000 nM

CCCn1cnc2c(c1=N)C(c1ccc(OC)cc1)c1sc3c(CC)cccc3c1O2 (stereo unspecified)
GI50 [1]: 714 nM
TGI [1]: 29900 nM
GI50 [2]: 691 nM
TGI [2]: 16000 nM
GI50 [3]: 279 nM
TGI [3]: 1030 nM
GI50 [4]: 685 nM
TGI [4]: 5430 nM
GI50 [5]: 338 nM
TGI [5]: > 31600 nM
GI50 [6]: 515 nM
TGI [6]: 14800 nM
GI50 [7]: 726 nM
TGI [7]: 21700 nM
GI50 [8]: 382 nM
TGI [8]: 4770 nM
GI50 [9]: 827 nM
TGI [9]: 20900 nM
GI50 [10]: 702 nM
TGI [10]: 26100 nM
GI50 [11]: 421 nM
GI50 [12]: 445 nM
TGI [12]: 24900 nM
GI50 [13]: 476 nM
TGI [13]: 20600 nM
GI50 [14]: 2590 nM
TGI [14]: 17900 nM
GI50 [15]: 272 nM
TGI [15]: 883 nM
GI50 [16]: 378 nM
TGI [16]: 2970 nM
GI50 [17]: 5130 nM
TGI [17]: 32400 nM
GI50 [18]: 553 nM
TGI [18]: 14800 nM
GI50 [19]: 378 nM
TGI [19]: 4450 nM
GI50 [20]: 392 nM
TGI [20]: 7240 nM
GI50 [21]: 1270 nM
TGI [21]: 18100 nM
GI50 [22]: 1350 nM
TGI [22]: 23500 nM
GI50 [23]: 941 nM
TGI [23]: 20000 nM
GI50 [24]: 844 nM
TGI [24]: 8270 nM
GI50 [25]: 2140 nM
TGI [25]: 36700 nM
GI50 [26]: 1190 nM
TGI [26]: 11200 nM
GI50 [27]: 389 nM
TGI [27]: 10000 nM
GI50 [28]: 612 nM
TGI [28]: 29400 nM
GI50 [29]: 375 nM
TGI [29]: 2560 nM
GI50 [30]: 534 nM
TGI [30]: 12800 nM
GI50 [31]: 1010 nM
TGI [31]: 15800 nM
GI50 [32]: 725 nM
TGI [32]: 17700 nM
GI50 [33]: 551 nM
TGI [33]: 16900 nM
GI50 [34]: 578 nM
TGI [34]: 7280 nM
GI50 [35]: 1300 nM
TGI [35]: 6600 nM
GI50 [36]: 15000 nM
TGI [36]: > 100000 nM
GI50 [37]: 334 nM
TGI [37]: 1400 nM
GI50 [38]: 665 nM
TGI [38]: 13700 nM
GI50 [39]: 334 nM
TGI [39]: 1410 nM
GI50 [40]: 867 nM
TGI [40]: 7600 nM
GI50 [41]: 345 nM
TGI [41]: 11600 nM
GI50 [42]: 384 nM
TGI [42]: 5760 nM
GI50 [43]: 512 nM
TGI [43]: 9090 nM
GI50 [44]: 818 nM
TGI [44]: 26900 nM
GI50 [45]: 346 nM
TGI [45]: 4940 nM
GI50 [46]: 518 nM
TGI [46]: > 49200 nM
GI50 [47]: 196 nM
TGI [47]: 479 nM
GI50 [48]: 220 nM
TGI [48]: 1090 nM
GI50 [49]: 1360 nM
TGI [49]: 13000 nM
GI50 [50]: 478 nM
TGI [50]: 14600 nM
GI50 [51]: 608 nM
TGI [51]: 14700 nM
GI50 [52]: 422 nM
TGI [52]: 19100 nM
GI50 [53]: 438 nM
TGI [53]: 12500 nM
GI50 [54]: 505 nM
TGI [54]: 5780 nM
GI50 [55]: 964 nM
TGI [55]: 11200 nM
GI50 [56]: 441 nM
TGI [56]: 6210 nM
GI50 [57]: 389 nM
TGI [57]: 6180 nM
GI50 [58]: 319 nM
TGI [58]: 3230 nM
